Common to all, as to experiment: growth of human tumour cells (NCI), 48 h
Assay [1] relates to SNB-19 CNS.
Assay [2] has as its system MOLT-4 leukemia.
For assay [3], the system named is HCC-2998 colon.
In assay [4] the test system is A498 renal.
For assay [5], the system named is ACHN renal.
The test system of assay [6] is SK-MEL-2 melanoma.
In assay [7] the test system is SR leukemia.
In assay [8] the test system is CAKI-1 renal.
Assay [9] deals with LOX IMVI melanoma.
Assay [10] relates to MDA-MB-231 breast.

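These data come from cells grown in 96-well plates and exposed to compound for 48 hours at five concentrations. GI50 = concentration required for 50% inhibition of growth. TGI is the concentration that stops growth completely.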 Where only a bound is given, the exact number is not on record here.

`O=C(O)C1=C(C(=O)Nc2ccc(NC(=O)C3=C(C(=O)O)C4C=CC3C4)cc2)C2C=CC1C2`: the TGI in assay [1], in [2], in assay [3], in assay [4], in assay [5] and in assay [6] was > 100 µM each time. Besides, the TGI in [7], in assay [8] and in assay [9] was > 100 µM in each case.
As for `O=[N+]([O-])c1cccc(C2=NOC3C4CCC(C4)C23)c1` (configuration not stated), the TGI in [2], in [3], in [4], in assay [5], in assay [6] and in assay [7] was > 100 µM each time.
Take `N#CC1=C(Cl)NC(Cl)=C(C#N)C1c1c(Cl)cccc1Cl`: the TGI in assay [1] is > 100 µM; in assay [2] it was > 100 µM; in assay [3] it was 47 µM; in assay [4], > 100 µM; in assay [5] it was > 100 µM; in assay [6], > 100 µM. Moreover, the values for the TGI in [7], in assay [8] and in assay [9] were > 100 µM, > 100 µM and 31 µM, respectively.
Regarding `CCC(Oc1ccc(OC)c2ccccc(=O)c12)C(=O)O` (configuration not stated), the TGI in assay [1], in assay [2], in assay [3], in [4], in assay [5] and in assay [6] was > 100 µM throughout. Moreover, the TGI in assay [7] and in [9] was > 100 µM each time.
For the compound `CCCNc1nc2ccccc2c2c1S(=O)(=O)c1ccc(Cl)cc1C2=O`, the GI50 in assay [1] was 1.4 µM; in [2], 1.54 µM; in assay [3], 1.62 µM; in assay [4], 1.51 µM; in [6], 1.92 µM; in assay [7] it was 0.79 µM. The GI50 in assay [8] was 1.46 µM; in [9], 1.28 µM. Besides, the TGI in assay [1] was > 50 µM; in assay [2] it was > 50 µM; in assay [3], 34.4 µM; in [4], 16.8 µM; in assay [6] it was > 50 µM; in assay [7], > 50 µM. The TGI in [8] and in [9] was > 50 µM in each case.
On to `CCC(=O)N/N=C(\C=C\c1cccc(O)c1)c1sc(Nc2ccc(C)cc2[N+](=O)[O-])nc1C`, for which the TGI in [1], in assay [2], in assay [3], in [4], in [5] and in assay [6] was > 100 µM throughout. The TGI in assay [7], in [8] and in assay [9] was > 100 µM throughout.
In the case of `C=CCCCc1ccc(C(O)CCCCCCCCCCCC)o1` (configuration not stated), the GI50 in assay [1] was 17.7 µM; in assay [2], 19.6 µM; in assay [3], 22.1 µM; in assay [5], 16.8 µM; in assay [10] it was 15.6 µM; in [6], 19.5 µM. Further, the GI50 in [8] is 17.4 µM; in assay [9], 16.9 µM. Moreover, the TGI amounted to 32.8 µM in assay [1]; 58.8 µM in assay [2]; 55 µM in assay [3]; 30.4 µM in assay [5]; 29.8 µM in assay [10]; 42.9 µM in assay [6]. The TGI turned out to be 33.2 µM in assay [8] and 31.1 µM in [9].
Take `CC(C)c1cc(OCC(O)CO)cc(C(C)C)c1` (configuration not stated): the TGI in assay [1], in [2], in assay [3], in assay [4], in [5] and in assay [6] was > 100 µM each time. Also, the TGI in assay [7], in assay [8] and in assay [9] was > 100 µM in each case.
For the compound `O=C(Nc1ccc(Cl)c(Cl)c1)OCCN1c2ccccc2Sc2ccccc21`, the TGI in [1], in assay [2], in [3], in assay [5], in assay [10] and in assay [7] was > 10 µM throughout. Moreover, the TGI in [8] and in assay [9] was > 10 µM throughout.
`O=C1NC(=O)C2C1N(Cc1ccccc1)C(=O)N2Cc1ccccc1` (configuration not stated): the TGI in assay [1], in assay [2], in assay [3], in [4], in [5] and in assay [7] was > 100 µM each time. Besides, the TGI in [8] and in [9] was > 100 µM throughout.
For `O=C1C=CC(CC(=O)c2ccc3ccccc3c2)O1` (configuration not stated), the TGI was 76.8 µM in assay [1]; 65.6 µM in [2]; 31.1 µM in assay [3]; 46.1 µM in [4]; > 100 µM in [5]; 47.5 µM in assay [6]. For the same compound, the TGI is 83.1 µM in [7], > 100 µM in assay [8] and 35.8 µM in assay [9].
With `O=C(/C=C1/Nc2ccc([N+](=O)[O-])cc2NC1O)c1cccc([N+](=O)[O-])c1` (configuration not stated), the TGI in [1], in assay [2], in [3], in [4], in assay [5] and in assay [7] was > 100 µM in each case. The TGI in assay [8] and in [9] was > 100 µM in each case.
With `O=C(Nc1ccn(CCI)c(=O)n1)c1ccccc1`, the TGI in [4], in assay [5], in assay [6], in assay [7], in [8] and in assay [9] was > 100 µM each time.
Take `C=CS(=O)(=O)CCN1CC1`: the TGI in assay [2], in assay [3], in [5], in assay [10], in assay [7] and in assay [8] was > 10 µM throughout. The TGI in assay [9] was > 10 µM.
With `O=C1OC(CN2CCOCC2)CN1/N=C/c1ccc([N+](=O)[O-])o1` (configuration not stated), the TGI in assay [1], in [2], in assay [5], in assay [10], in assay [6] and in assay [7] was > 100 µM each time. Moreover, the TGI in assay [8] is > 100 µM; in assay [9] it was 59.6 µM.
As for `CO[C@H]1CC(c2ccc[nH]2)=N[C@]12O[C@@H](C)C[C@@H]1CCCCCCCc3ccc([nH]3)[C@H]12`, the GI50 was 3.41 µM in [1]; 1.01 µM in assay [2]; 0.814 µM in assay [3]; 1.22 µM in assay [5]; 0.853 µM in [10]; 1.03 µM in assay [6]. For the same compound, the results for the GI50 in assay [7], in assay [8] and in assay [9] were 0.72 µM, 1.18 µM and 0.52 µM, respectively. In addition, the TGI is > 33.3 µM in assay [1]; 13.6 µM in [2]; 5.54 µM in assay [3]; 4.76 µM in assay [5]; 5.23 µM in assay [10]; 4.21 µM in assay [6]. In addition, the TGI in assay [7] was 4.93 µM; in assay [8], 11.3 µM; in assay [9] it was 1.26 µM.
As to `COC(=O)C1=C(c2ccc3c(c2)OCO3)OC(c2cc(OC)c(OC)c(OC)c2)C1` (configuration not stated), the TGI is > 100 µM in assay [1]; > 100 µM in assay [2]; > 100 µM in [3]; 8.04 µM in assay [4]; > 100 µM in [5]; > 100 µM in assay [7]. Besides, the TGI in [8] and in assay [9] was > 100 µM throughout.
Consider `CN(C)C(=S)/N=c1\ss/c(=N\S(=O)(=O)c2ccccc2)n1N(C)C`, for which the TGI in assay [1], in assay [2], in [3], in [4], in [5] and in assay [6] was > 100 µM each time. For the same compound, the TGI in assay [7] and in assay [8] was > 100 µM each time.
In the case of `Cc1c(Sc2ccccc2)[n+](=O)c2cc(Cl)c(Cl)cc2n1[O-]`, the GI50 is > 100 µM in assay [1]; 15 µM in [2]; 34.1 µM in [3]; 20.5 µM in [5]; 35.7 µM in [10]; > 100 µM in assay [6]. For the same compound, the GI50 in assay [8] is 42 µM; in assay [9] it was 18.4 µM. For the same compound, the TGI in [1] was > 100 µM; in assay [2], 33.3 µM; in assay [3] it was > 100 µM; in [5], 41.6 µM; in assay [10] it was > 100 µM; in [6] it was > 100 µM. For the same compound, the TGI in assay [8] was > 100 µM; in assay [9] it was 36.7 µM.
For the compound `COC1=C2CC(C)CC(OC)C(O)C(C)/C=C(\C)C(OC(N)=O)C(OC)/C=C\C=C(/C)C(=O)NC(=C(/C=N/N3CCCCC3)C1=O)C2=O` (configuration not stated), the TGI in assay [1] came to 41.9 µM; in assay [2] it was 7.39 µM; in assay [3] it was 18.9 µM; in assay [4] it was 63.8 µM; in [5] it was 28.8 µM; in assay [6], 32.5 µM. For the same compound, the results for the TGI in assay [7], in [8] and in assay [9] were 7.48 µM, 37 µM and 22.3 µM, respectively.
As for `O=C(O)CCSC(=O)Nc1ccc(N=Nc2ccccc2)cc1`, the TGI in assay [1], in assay [2], in [3], in assay [4], in [5] and in [7] was > 100 µM each time. In addition, the TGI in assay [8] and in assay [9] was > 100 µM each time.
As for `O=C(O)/C=C/C(=O)N1C/C(=C\c2ccccc2)C(=O)/C(=C/c2ccccc2)C1`, the TGI in assay [1] amounted to 23.6 µM; in [2] it was 9.26 µM; in [3], 13.1 µM; in assay [4], 34.5 µM; in [5] it was 20.9 µM; in assay [6] it was 17.2 µM. Besides, the TGI is 41.6 µM in assay [7], 31.1 µM in [8] and 10.5 µM in [9].
For `COc1cc2c3c(n(CCCN=[N+]=[N-])c(=O)c2cc1OC)-c1ccc(N(C)C)cc1C3=O`, the GI50 in assay [1], in assay [2], in [3], in assay [5], in assay [10] and in assay [6] was > 100 µM each time. For the same compound, the GI50 in assay [9] is > 100 µM. Further, the TGI in [1], in assay [2], in assay [3], in assay [5], in [10] and in [6] was > 100 µM in each case. Also, in assay [9], the TGI is > 100 µM.
Regarding `COc1ccc(Nc2c3ccccc3nc3[nH]c4ccccc4c23)cc1`, the GI50 in assay [1] is 25.5 µM; in assay [2], 2.35 µM; in assay [5], 7.36 µM; in assay [10], 14.5 µM; in assay [6], > 50 µM; in [7], 3.84 µM. For the same compound, the GI50 in [8] is 14 µM; in [9] it was 6.44 µM. For the same compound, the TGI is > 50 µM in assay [1]; > 50 µM in assay [2]; 25 µM in assay [5]; > 50 µM in assay [10]; > 50 µM in assay [6]; > 50 µM in [7]. In addition, the TGI in [8] is > 50 µM; in [9], 29.5 µM.
In the case of `Nn1c(N=Nc2c(O)[nH]c3c(Cl)cc(Cl)cc23)n[nH]c1=S`, the TGI in [1], in assay [2], in assay [3], in assay [4], in assay [5] and in assay [6] was > 100 µM throughout. Moreover, the TGI in assay [7], in assay [8] and in assay [9] was > 100 µM in each case.
In the case of `O=C(NS(=O)(=O)c1ccccc1)C(Cc1ccccc1)C(Cc1ccccc1)C(=O)NS(=O)(=O)c1ccccc1` (configuration not stated), the TGI in [1], in assay [2], in [3], in assay [4], in [5] and in assay [6] was > 100 µM throughout. In addition, the TGI in assay [7], in [8] and in assay [9] was > 100 µM throughout.
In the case of `CN1CC(=O)N(C)c2nc[nH]c2C1=O`, the TGI in [1], in assay [2], in assay [3], in [4], in assay [5] and in [7] was > 100 µM in each case. For the same compound, in [9], the TGI was > 100 µM.

The values above are taken from PubChem BioAssay (NCI).
